Assay results: patent US20230120597A1, “CO-AGONISTS AT GLP-1 AND GIP RECEPTORS SUITABLE FOR ORAL DELIVERY” (Novo Nordisk A/S, priority 2020, published 2023)
Marks after values point to notes of the source that are not given here. Starred links: 1 amine or outer side, 2 acyl side, 3 side chain; linkers in the order of their positions; H or OH if unused. Non-standard residues stand in square brackets, D forms with d. Residues, ends and D or L forms follow the SMILES beside them. Groups on a side chain read outwards from the residue. *: point of attachment. C20 diacid = O=C(O)CCCCCCCCCCCCCCCCCCC(=O)*; C18 diacid = O=C(O)CCCCCCCCCCCCCCCCC(=O)*; γGlu = O=C(O)[C@H](CCC(=O)[*:2])N[*:1]; εLys = N[C@@H](CCCCN[*:1])C(=O)[*:2]; Aib = CC(C)(N)C(=O)O

Test: Pharmacokinetic study in dogs, oral dosing of tablet compositions with SNAC
Assay type: in vivo, Beagle dogs
Settings: dog, in vivo, po
Method: The purpose of this example is to determine the half-life and plasma exposure in vivo of the compounds of the present invention after p.o. administration to beagle dogs, i.e. the terminal half-life and concentration of test substance that reaches circulation with time. This is done in a pharmacokinetic (PK) study, where these parameters of the compound in question are determined. By terminal half-life is generally meant the period of time it takes to halve a certain plasma concentration, measured after the initial distribution phase.
The amount of SNAC in the tablet composition was 100-300 mg, the amount of magnesium stearate in the tablet composition was 7.7 mg, and the target amount of each test substance in the tablet composition was 3-4 mg.
Male beagle dogs, 1-7 years of age and weighing 9-17 kg during the study period, were included in the study. The dogs were dosed in a fasting state. The dogs were group housed in pens (12 hours light: 12 hours dark), and fed individually and restrictedly once daily with Royal Canin Medium Adult dog food (Royal Canin Products, China Branch, or Brogaarden A/S, Denmark). The dogs were used for repeated PK studies with a suitable wash-out period between successive dosing. An appropriate acclimatization period was given prior to initiation of the first PK study. All handling, dosing, and blood sampling of the animals were performed by trained and skilled staff. Before the studies, the dogs were fasted overnight and from 0 to 4 hours after dosing. The dogs were restricted to water 1 hour before dosing until 4 hours after dosing, but otherwise had ad libitum access to water during the whole period.
The compositions were administered by a single oral dosing to the dogs in groups of 6-8 dogs. […] The mouth was then closed, and 10 mL of tap water was given by syringe or gavage to facilitate swallowing of the tablet.
One blood sample was drawn before dosing, and additional samples were drawn at predefined time points after dosing for up to 240 hours, such as up to 10 hours, to adequately cover the full plasma concentration-time absorption profile of the test substance. For each blood sample time point, approximately 0.8 mL of whole blood was collected in a 1.5 mL EDTA-coated tube, which was gently turned to mix the sample with EDTA. Blood samples were collected in EDTA buffer (8 mM) and then centrifuged at 4° C. 2000 g for 10 minutes. Plasma was pipetted into Micronic tubes on dry ice, and kept at −20° C. or lower until analysis. Blood samples were taken as appropriate, for example from a venflon in the cephalic vein in the front leg for the first 2 hours and then with syringe from the jugular vein for the rest of the time points. The first few drops were allowed to drain from the venflon to avoid heparin saline from the venflon in the sample.
All blood samples were collected into test tubes containing EDTA for stabilisation and kept on ice until centrifugation. Plasma was separated from whole blood by centrifugation and the plasma was stored at −20° C. or lower until analysis.
The plasma was analysed for test substance using LC-MS (Liquid Chromatography-Mass Spectrometry) as known to the person skilled in the art. […] RP-HPLC separation was achieved using a linear gradient of 1:1 acetonitrile/methanol in 1% aqueous formic acid using either: a Phenomenex Onyx Monolithic C18 column (50×2.0 mm) and a flow rate of 0.8 mL/min at 30° C.; or an Agilent Poroshell 120 SB-C18 column (50×2.1 mm, 2.7 μm) at a flow rate of 0.4 mL/min at 60° C. The mass spectrometer was operated in either positive ionization SIM mode or positive ionization PRM mode.
For each individual animal, a plasma concentration-time profile was analysed by a non-compartmental model in Pharsight Phoenix WinNonLin ver.

Row | SMILES | AUC/Dose
1 | CC[C@H](C)[C@H](NC(=O)[C@H](Cc1ccccc1)NC(=O)[C@H](CCC(=O)O)NC(=O)[C@H](CCCNC(=N)N)NC(=O)[C@H](C)NC(=O)[C@H](C)NC(=O)[C@H](CCC(N)=O)NC(=O)[C@H](CCCCNC(=O)[C@@H](N)CCCCNC(=O)[C@@H](N)CCCCNC(=O)CC[C@H](NC(=O)CCCCCCCCCCCCCCCCCCC(=O)O)C(=O)O)NC(=O)[C@H](CCC(=O)O)NC(=O)[C@H](CC(C)C)NC(=O)[C@H](Cc1ccc(O)cc1)NC(=O)[C@@H](NC(=O)[C@H](CO)NC(=O)[C@H](Cc1ccc(O)cc1)NC(=O)[C@H](CC(=O)O)NC(=O)[C@H](CO)NC(=O)[C@@H](NC(=O)[C@H](Cc1ccccc1)NC(=O)[C@@H](NC(=O)CNC(=O)[C@H](CCC(=O)O)NC(=O)C(C)(C)NC(=O)[C@@H](N)Cc1ccc(O)cc1)[C@@H](C)O)[C@@H](C)O)[C@@H](C)CC)C(=O)N[C@@H](CC(N)=O)C(=O)N[C@@H](Cc1c[nH]c2ccccc12)C(=O)N[C@@H](CC(C)C)C(=O)N[C@@H](CC(C)C)C(=O)N[C@@H](C)C(=O)NCC(=O)NCC(=O)N1CCC[C@H]1C(=O)N[C@@H](CO)C(=O)N[C@@H](CO)C(=O)NCC(=O)N[C@@H](C)C(=O)N1CCC[C@H]1C(=O)N1CCC[C@H]1C(=O)N1CCC[C@H]1C(=O)N[C@@H](CO)C(=O)O [Compound No. 16] (H-Y[Aib]EGTFTSDYSIYLEK([εLys-εLys-γGlu-C20 diacid])QAAREFINWLLAGGPSSGAPPPS-OH) | 8.6 kg·h/L
2 | CC[C@H](C)[C@H](NC(=O)[C@H](Cc1ccccc1)NC(=O)[C@H](CCC(=O)O)NC(=O)[C@H](CCCNC(=N)N)NC(=O)[C@H](C)NC(=O)[C@H](C)NC(=O)[C@H](CCC(N)=O)NC(=O)[C@H](CCCCNC(=O)[C@@H](N)CCCCNC(=O)[C@@H](N)CCCCNC(=O)CC[C@H](NC(=O)CCCCCCCCCCCCCCCCC(=O)O)C(=O)O)NC(=O)[C@H](CCC(=O)O)NC(=O)[C@H](CC(C)C)NC(=O)[C@H](CC(C)C)NC(=O)[C@@H](NC(=O)[C@H](CO)NC(=O)[C@H](Cc1ccc(O)cc1)NC(=O)[C@H](CC(=O)O)NC(=O)[C@H](CO)NC(=O)[C@@H](NC(=O)[C@H](Cc1ccccc1)NC(=O)[C@@H](NC(=O)CNC(=O)[C@H](CCC(=O)O)NC(=O)C(C)(C)NC(=O)[C@@H](N)Cc1ccc(O)cc1)[C@@H](C)O)[C@@H](C)O)[C@@H](C)CC)C(=O)N[C@@H](CC(N)=O)C(=O)N[C@@H](Cc1c[nH]c2ccccc12)C(=O)N[C@@H](CC(C)C)C(=O)N[C@@H](CC(C)C)C(=O)N[C@@H](C)C(=O)NCC(=O)NCC(=O)N1CCC[C@H]1C(=O)N[C@@H](CO)C(=O)N[C@@H](CO)C(=O)O [Compound No. 20] (H-Y[Aib]EGTFTSDYSILLEK([εLys-εLys-γGlu-C18 diacid])QAAREFINWLLAGGPSS-OH; N-terminus assumed) | 10.8 kg·h/L
3 | CC[C@H](C)[C@H](NC(=O)[C@H](Cc1ccccc1)NC(=O)[C@H](CCC(=O)O)NC(=O)[C@H](CCC(N)=O)NC(=O)[C@H](C)NC(=O)[C@H](C)NC(=O)[C@H](CCC(N)=O)NC(=O)[C@H](CCCCNC(=O)[C@@H](N)CCCCNC(=O)[C@@H](N)CCCCNC(=O)CC[C@H](NC(=O)CCCCCCCCCCCCCCCCC(=O)O)C(=O)O)NC(=O)[C@H](CCC(=O)O)NC(=O)[C@H](CC(C)C)NC(=O)[C@H](CC(C)C)NC(=O)[C@@H](NC(=O)[C@H](CO)NC(=O)[C@H](Cc1ccc(O)cc1)NC(=O)[C@H](CC(=O)O)NC(=O)[C@H](CO)NC(=O)[C@@H](NC(=O)[C@H](Cc1ccccc1)NC(=O)[C@@H](NC(=O)CNC(=O)[C@H](CCC(=O)O)NC(=O)C(C)(C)NC(=O)[C@@H](N)Cc1ccc(O)cc1)[C@@H](C)O)[C@@H](C)O)[C@@H](C)CC)C(=O)N[C@@H](CC(N)=O)C(=O)N[C@@H](Cc1c[nH]c2ccccc12)C(=O)N[C@@H](CC(C)C)C(=O)N[C@@H](CC(C)C)C(=O)N[C@@H](C)C(=O)NCC(=O)NCC(=O)N1CCC[C@H]1C(=O)N[C@@H](CO)C(=O)N[C@@H](CO)C(=O)NCC(=O)N[C@@H](C)C(=O)N1CCC[C@H]1C(=O)N1CCC[C@H]1C(=O)N1CCC[C@H]1C(=O)N[C@@H](CO)C(=O)O [Compound No. 24] (H-Y[Aib]EGTFTSDYSILLEK([εLys-εLys-γGlu-C18 diacid])QAAQEFINWLLAGGPSSGAPPPS-OH; N-terminus assumed) | 16.4 kg·h/L
4 | CC[C@H](C)[C@H](NC(=O)[C@H](Cc1ccccc1)NC(=O)[C@H](CCC(=O)O)NC(=O)[C@H](CCC(=O)O)NC(=O)[C@H](C)NC(=O)[C@H](C)NC(=O)[C@H](CCC(N)=O)NC(=O)[C@H](CCCCNC(=O)[C@@H](N)CCCCNC(=O)[C@@H](N)CCCCNC(=O)CC[C@H](NC(=O)CCCCCCCCCCCCCCCCC(=O)O)C(=O)O)NC(=O)[C@H](CCC(=O)O)NC(=O)[C@H](CC(C)C)NC(=O)[C@H](CC(C)C)NC(=O)[C@@H](NC(=O)[C@H](CO)NC(=O)[C@H](Cc1ccc(O)cc1)NC(=O)[C@H](CC(=O)O)NC(=O)[C@H](CO)NC(=O)[C@@H](NC(=O)[C@H](Cc1ccccc1)NC(=O)[C@@H](NC(=O)CNC(=O)[C@H](CCC(=O)O)NC(=O)C(C)(C)NC(=O)[C@@H](N)Cc1ccc(O)cc1)[C@@H](C)O)[C@@H](C)O)[C@@H](C)CC)C(=O)N[C@@H](CC(N)=O)C(=O)N[C@@H](Cc1c[nH]c2ccccc12)C(=O)N[C@@H](CC(C)C)C(=O)N[C@@H](CC(C)C)C(=O)N[C@@H](C)C(=O)NCC(=O)NCC(=O)N1CCC[C@H]1C(=O)N[C@@H](CO)C(=O)N[C@@H](CO)C(=O)NCC(=O)N[C@@H](C)C(=O)N1CCC[C@H]1C(=O)N1CCC[C@H]1C(=O)N1CCC[C@H]1C(=O)N[C@@H](CO)C(=O)O [Compound No. 25] (H-Y[Aib]EGTFTSDYSILLEK([εLys-εLys-γGlu-C18 diacid])QAAEEFINWLLAGGPSSGAPPPS-OH) | 15.2 kg·h/L
5 | CC[C@H](C)[C@H](NC(=O)[C@H](Cc1ccccc1)NC(=O)[C@H](CCC(=O)O)NC(=O)[C@H](Cc1c[nH]cn1)NC(=O)[C@H](C)NC(=O)[C@H](C)NC(=O)[C@H](CCC(N)=O)NC(=O)[C@H](CCCCNC(=O)[C@@H](N)CCCCNC(=O)[C@@H](N)CCCCNC(=O)CC[C@H](NC(=O)CCCCCCCCCCCCCCCCC(=O)O)C(=O)O)NC(=O)[C@H](CCC(=O)O)NC(=O)[C@H](CC(C)C)NC(=O)[C@H](CC(C)C)NC(=O)[C@@H](NC(=O)[C@H](CO)NC(=O)[C@H](Cc1ccc(O)cc1)NC(=O)[C@H](CC(=O)O)NC(=O)[C@H](CO)NC(=O)[C@@H](NC(=O)[C@H](Cc1ccccc1)NC(=O)[C@@H](NC(=O)CNC(=O)[C@H](CCC(=O)O)NC(=O)C(C)(C)NC(=O)[C@@H](N)Cc1ccc(O)cc1)[C@@H](C)O)[C@@H](C)O)[C@@H](C)CC)C(=O)N[C@@H](CC(N)=O)C(=O)N[C@@H](Cc1c[nH]c2ccccc12)C(=O)N[C@@H](CC(C)C)C(=O)N[C@@H](CC(C)C)C(=O)N[C@@H](C)C(=O)NCC(=O)NCC(=O)N1CCC[C@H]1C(=O)N[C@@H](CO)C(=O)N[C@@H](CO)C(=O)NCC(=O)N[C@@H](C)C(=O)N1CCC[C@H]1C(=O)N1CCC[C@H]1C(=O)N1CCC[C@H]1C(=O)N[C@@H](CO)C(=O)O [Compound No. 26] (H-Y[Aib]EGTFTSDYSILLEK([εLys-εLys-γGlu-C18 diacid])QAAHEFINWLLAGGPSSGAPPPS-OH) | 27.4* kg*h/L
